Data: ChEMBL document CHEMBL5653615 (J Biol Chem, 2013)

Key:
[1] = target: cAMP-dependent protein kinase (PKA) (Homo sapiens) (UniProt P22694+P17612+P22612); experiment: Inhibition of human PKA at 18.6 nM by HotSpot assay relative to control; format: protein assay
[2] = target: Dual specificity tyrosine-phosphorylation-regulated kinase 1A (Homo sapiens) (UniProt Q13627); experiment: Inhibition of human DYRK1 at 18.6 nM by HotSpot assay relative to control
[3] = target: T1, Tyrosine-protein kinase ITK/TSK (Homo sapiens) (UniProt Q08881); experiment: Inhibition of human ITK at 18.6 nM by HotSpot assay relative to control
T1 sequence (whole entry): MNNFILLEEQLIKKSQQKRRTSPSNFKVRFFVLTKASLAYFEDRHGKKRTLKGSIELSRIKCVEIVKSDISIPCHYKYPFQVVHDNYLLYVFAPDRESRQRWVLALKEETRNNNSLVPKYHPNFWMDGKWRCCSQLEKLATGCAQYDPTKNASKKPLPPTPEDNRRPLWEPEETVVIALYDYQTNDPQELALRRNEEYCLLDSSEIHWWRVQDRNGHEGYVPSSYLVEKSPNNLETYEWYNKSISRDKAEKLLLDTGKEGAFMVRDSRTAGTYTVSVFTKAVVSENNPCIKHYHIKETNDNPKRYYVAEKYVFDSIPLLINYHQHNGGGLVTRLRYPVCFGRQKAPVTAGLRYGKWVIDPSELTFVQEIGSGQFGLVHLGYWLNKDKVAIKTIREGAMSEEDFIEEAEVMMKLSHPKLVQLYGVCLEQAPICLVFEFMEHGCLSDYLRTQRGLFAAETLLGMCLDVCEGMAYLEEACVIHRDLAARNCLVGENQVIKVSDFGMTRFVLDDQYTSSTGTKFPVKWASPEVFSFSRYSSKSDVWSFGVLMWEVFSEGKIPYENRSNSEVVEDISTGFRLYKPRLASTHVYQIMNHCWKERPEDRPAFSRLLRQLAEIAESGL

[4] = target: Serine/threonine-protein kinase 16 (Homo sapiens) (UniProt O75716); experiment: Inhibition of human STK16 at 18.6 nM by HotSpot assay relative to control
[5] = target: Mitogen-activated protein kinase 11 (Homo sapiens) (UniProt Q15759); experiment: Inhibition of human MAPK11 at 18.6 nM by HotSpot assay relative to control
[6] = target: Serine/threonine-protein kinase PAK 2 (Homo sapiens) (UniProt Q13177); experiment: Inhibition of human PAK2 at 18.6 nM by HotSpot assay relative to control
[7] = target: Casein kinase I isoform gamma-3 (Homo sapiens) (UniProt Q9Y6M4); experiment: Inhibition of human CK1g3 at 18.6 nM by HotSpot assay relative to control
[8] = target: Dual specificity tyrosine-phosphorylation-regulated kinase 1B (Homo sapiens) (UniProt Q9Y463); experiment: Inhibition of human DYRK1B at 1.82 nM by HotSpot assay relative to control
[9] = target: Platelet-derived growth factor receptor alpha (Homo sapiens) (UniProt P16234); experiment: Inhibition of human PDGFRa at 1.82 nM by HotSpot assay relative to control
[10] = target: T2, Ephrin type-B receptor 2 (Homo sapiens) (UniProt P29323); experiment: Inhibition of human EPHB2 at 1.82 nM by HotSpot assay relative to control
T2 sequence (whole entry): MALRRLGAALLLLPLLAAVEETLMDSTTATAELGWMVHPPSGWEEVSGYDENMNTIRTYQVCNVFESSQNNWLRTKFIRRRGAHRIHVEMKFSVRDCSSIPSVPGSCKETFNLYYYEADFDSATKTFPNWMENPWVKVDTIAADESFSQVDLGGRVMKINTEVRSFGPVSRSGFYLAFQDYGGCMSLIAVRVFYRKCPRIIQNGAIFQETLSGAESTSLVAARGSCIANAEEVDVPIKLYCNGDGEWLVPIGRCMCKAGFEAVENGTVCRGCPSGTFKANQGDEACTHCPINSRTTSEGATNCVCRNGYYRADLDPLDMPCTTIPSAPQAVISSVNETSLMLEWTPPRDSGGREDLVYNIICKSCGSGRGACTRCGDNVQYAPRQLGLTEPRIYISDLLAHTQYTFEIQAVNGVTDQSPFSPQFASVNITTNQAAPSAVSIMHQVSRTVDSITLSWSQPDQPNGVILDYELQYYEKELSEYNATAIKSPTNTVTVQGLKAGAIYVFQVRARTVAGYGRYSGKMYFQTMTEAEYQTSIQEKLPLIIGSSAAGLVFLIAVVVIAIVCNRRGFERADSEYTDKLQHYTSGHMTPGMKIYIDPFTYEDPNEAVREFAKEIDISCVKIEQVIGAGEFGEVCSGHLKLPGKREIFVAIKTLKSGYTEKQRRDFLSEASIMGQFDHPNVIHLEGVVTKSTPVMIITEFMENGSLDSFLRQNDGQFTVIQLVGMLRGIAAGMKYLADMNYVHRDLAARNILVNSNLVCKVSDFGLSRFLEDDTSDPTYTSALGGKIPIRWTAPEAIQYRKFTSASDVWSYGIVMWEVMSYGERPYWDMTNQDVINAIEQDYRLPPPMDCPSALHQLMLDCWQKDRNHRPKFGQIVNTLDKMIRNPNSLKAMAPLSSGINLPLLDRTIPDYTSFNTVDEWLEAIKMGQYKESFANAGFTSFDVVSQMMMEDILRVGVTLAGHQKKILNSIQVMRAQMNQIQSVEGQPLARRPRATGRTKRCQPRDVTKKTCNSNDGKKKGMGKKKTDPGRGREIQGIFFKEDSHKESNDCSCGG

[11] = target: T3, Homeodomain-interacting protein kinase 4 (Homo sapiens) (UniProt Q8NE63); experiment: Inhibition of human HIPK4 at 1.82 nM by HotSpot assay relative to control
T3 sequence (whole entry): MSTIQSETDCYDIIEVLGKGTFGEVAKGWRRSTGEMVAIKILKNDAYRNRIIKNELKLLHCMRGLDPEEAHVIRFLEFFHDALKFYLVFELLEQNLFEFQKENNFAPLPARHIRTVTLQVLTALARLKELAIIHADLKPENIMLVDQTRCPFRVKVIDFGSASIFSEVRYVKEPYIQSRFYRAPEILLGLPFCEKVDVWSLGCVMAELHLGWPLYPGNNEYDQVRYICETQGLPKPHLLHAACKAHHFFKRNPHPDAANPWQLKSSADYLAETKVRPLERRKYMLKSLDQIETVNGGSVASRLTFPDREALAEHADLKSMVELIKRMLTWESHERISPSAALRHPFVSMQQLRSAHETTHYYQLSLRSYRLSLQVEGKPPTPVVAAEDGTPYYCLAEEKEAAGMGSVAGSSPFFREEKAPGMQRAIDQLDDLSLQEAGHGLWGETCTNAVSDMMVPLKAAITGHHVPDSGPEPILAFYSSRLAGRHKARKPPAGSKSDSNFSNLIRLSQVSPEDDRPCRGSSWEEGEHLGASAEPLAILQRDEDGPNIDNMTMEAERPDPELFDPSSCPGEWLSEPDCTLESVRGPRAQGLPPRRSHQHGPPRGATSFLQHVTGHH

Mitogen-activated protein kinase 11 (Homo sapiens), sequence (Q15759 whole entry): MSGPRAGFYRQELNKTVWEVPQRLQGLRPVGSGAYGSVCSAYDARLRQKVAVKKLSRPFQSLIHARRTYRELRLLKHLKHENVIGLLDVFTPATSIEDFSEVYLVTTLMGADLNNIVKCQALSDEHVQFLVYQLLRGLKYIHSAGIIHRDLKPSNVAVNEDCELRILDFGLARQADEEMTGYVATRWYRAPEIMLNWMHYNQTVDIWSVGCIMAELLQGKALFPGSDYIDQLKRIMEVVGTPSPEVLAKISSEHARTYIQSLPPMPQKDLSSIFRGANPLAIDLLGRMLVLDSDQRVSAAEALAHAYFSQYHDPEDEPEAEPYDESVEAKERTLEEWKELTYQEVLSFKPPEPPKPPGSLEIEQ
Platelet-derived growth factor receptor alpha (Homo sapiens), sequence (P16234 whole entry): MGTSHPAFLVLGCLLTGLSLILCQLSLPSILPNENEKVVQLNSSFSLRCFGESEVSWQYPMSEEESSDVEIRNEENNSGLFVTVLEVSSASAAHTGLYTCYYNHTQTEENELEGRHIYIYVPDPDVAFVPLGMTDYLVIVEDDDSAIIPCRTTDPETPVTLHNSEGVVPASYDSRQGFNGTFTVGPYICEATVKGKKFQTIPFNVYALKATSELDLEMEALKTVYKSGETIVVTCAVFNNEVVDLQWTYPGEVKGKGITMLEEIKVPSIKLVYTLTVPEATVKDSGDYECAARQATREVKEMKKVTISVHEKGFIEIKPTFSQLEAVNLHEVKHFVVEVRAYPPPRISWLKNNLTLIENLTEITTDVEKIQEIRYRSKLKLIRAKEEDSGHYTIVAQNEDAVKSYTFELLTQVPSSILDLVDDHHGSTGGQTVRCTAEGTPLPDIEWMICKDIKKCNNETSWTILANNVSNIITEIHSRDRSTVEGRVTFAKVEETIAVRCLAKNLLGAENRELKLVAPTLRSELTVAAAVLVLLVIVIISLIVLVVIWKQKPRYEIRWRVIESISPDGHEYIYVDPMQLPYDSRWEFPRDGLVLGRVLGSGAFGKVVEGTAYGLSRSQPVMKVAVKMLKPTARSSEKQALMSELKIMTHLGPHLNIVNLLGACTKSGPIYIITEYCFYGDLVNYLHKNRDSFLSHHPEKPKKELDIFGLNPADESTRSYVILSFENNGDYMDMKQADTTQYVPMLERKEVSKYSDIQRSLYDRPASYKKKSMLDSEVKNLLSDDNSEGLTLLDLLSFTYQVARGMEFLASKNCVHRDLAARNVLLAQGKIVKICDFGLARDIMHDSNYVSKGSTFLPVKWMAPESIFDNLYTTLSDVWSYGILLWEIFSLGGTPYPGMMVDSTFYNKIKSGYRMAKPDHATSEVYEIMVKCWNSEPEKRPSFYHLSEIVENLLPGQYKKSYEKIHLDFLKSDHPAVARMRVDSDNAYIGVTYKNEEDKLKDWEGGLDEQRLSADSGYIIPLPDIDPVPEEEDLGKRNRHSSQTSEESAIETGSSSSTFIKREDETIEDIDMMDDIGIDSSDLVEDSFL
Dual specificity tyrosine-phosphorylation-regulated kinase 1B (Homo sapiens), sequence (Q9Y463 whole entry, looked up): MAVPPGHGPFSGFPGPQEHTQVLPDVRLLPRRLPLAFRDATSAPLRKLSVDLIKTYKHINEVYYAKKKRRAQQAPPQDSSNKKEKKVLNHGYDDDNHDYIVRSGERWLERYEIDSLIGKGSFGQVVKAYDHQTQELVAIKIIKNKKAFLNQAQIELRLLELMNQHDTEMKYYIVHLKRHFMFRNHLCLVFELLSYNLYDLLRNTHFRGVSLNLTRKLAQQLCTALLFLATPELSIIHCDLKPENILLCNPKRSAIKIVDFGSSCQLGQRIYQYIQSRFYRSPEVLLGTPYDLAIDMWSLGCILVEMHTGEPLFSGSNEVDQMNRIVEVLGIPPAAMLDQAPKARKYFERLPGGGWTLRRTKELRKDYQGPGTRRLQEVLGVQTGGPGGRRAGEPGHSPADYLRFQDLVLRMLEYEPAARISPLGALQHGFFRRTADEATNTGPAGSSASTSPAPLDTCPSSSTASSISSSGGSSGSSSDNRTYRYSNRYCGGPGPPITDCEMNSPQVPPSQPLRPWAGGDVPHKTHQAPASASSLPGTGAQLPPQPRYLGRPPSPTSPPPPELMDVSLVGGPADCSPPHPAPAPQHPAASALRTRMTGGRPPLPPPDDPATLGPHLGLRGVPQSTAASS
Casein kinase I isoform gamma-3 (Homo sapiens), sequence (Q9Y6M4 whole entry, looked up, canonical isoform): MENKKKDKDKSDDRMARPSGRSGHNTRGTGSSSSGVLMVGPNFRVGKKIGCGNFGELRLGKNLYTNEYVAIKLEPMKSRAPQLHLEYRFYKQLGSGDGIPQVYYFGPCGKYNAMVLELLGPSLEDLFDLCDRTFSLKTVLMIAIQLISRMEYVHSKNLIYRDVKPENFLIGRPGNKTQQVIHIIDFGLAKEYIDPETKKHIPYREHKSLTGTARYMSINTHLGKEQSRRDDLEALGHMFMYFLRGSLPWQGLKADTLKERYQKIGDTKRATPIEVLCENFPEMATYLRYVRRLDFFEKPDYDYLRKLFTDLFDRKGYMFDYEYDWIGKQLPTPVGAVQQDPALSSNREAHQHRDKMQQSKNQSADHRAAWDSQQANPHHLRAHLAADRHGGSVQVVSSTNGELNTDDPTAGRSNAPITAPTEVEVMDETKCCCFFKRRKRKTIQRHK
Serine/threonine-protein kinase PAK 2 (Homo sapiens), sequence (Q13177 whole entry, canonical isoform): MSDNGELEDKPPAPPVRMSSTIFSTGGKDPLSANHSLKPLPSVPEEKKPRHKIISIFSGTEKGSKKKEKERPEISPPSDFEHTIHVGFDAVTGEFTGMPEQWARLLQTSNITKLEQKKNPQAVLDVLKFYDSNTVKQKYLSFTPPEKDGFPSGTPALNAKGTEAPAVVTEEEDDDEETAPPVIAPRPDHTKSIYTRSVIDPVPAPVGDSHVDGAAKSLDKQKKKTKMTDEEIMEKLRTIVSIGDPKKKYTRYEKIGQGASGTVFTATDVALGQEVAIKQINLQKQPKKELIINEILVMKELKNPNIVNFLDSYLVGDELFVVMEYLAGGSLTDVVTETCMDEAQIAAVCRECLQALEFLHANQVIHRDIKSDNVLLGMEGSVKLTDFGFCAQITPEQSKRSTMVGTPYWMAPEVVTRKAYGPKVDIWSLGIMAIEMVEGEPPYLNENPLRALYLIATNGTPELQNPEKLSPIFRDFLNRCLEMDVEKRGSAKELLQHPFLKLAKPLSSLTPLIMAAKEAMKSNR
Serine/threonine-protein kinase 16 (Homo sapiens), sequence (O75716 whole entry): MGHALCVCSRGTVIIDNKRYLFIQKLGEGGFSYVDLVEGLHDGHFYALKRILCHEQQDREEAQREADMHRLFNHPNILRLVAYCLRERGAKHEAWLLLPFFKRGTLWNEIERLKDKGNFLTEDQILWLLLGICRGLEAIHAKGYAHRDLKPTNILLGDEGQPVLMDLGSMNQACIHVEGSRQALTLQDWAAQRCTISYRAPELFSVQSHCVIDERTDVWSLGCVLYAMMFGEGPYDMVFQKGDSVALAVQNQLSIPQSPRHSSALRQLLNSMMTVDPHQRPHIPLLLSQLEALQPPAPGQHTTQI

inhibition [1] | inhibition [2] | inhibition [3] | inhibition [4] | inhibition [5] | inhibition [6] | inhibition [7] | inhibition [8] | inhibition [9] | inhibition [10] | inhibition [11] | SMILES
-8.62% | -1.6% | -7.85% | -0.38% | -4.21% | -7.87% | 1.42% |  |  |  |  | C[C@]1(O)C[C@@H](c2nc(-c3ccc4ccc(-c5ccccc5)nc4c3)c3c(N)nccn32)C1
 |  |  |  |  |  |  | -1.57% | 0.58% | -7.51% | -0.23% | C[C@@]1(C(=O)Nc2ccc(F)nc2)CCCN1c1nc(Nc2cc(C3CC3)n[nH]2)c2cccn2n1
